From patent US10351575B2, “Bicyclic urea, thiourea, guanidine and cyanoguanidine compounds useful for the treatment of pain” (Array BioPharma Inc., priority 2012, dated 2019) come the findings set out here.

A value given as a limit tells only on which side of the number the result lay.

Chain of His-tagged recombinant human TrkA (P04629 440-796): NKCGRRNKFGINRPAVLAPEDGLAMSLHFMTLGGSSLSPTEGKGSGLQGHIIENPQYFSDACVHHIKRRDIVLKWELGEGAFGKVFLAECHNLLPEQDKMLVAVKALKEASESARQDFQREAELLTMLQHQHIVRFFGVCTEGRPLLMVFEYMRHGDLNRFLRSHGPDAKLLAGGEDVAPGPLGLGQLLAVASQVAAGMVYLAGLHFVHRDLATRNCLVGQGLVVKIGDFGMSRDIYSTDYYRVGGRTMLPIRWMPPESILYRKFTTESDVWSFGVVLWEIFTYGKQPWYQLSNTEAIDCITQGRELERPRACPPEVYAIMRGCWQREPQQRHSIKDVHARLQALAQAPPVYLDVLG

For the experiment, the target named is His-tagged recombinant human TrkA (Homo sapiens (Human), UniProt P04629). Put plainly: TrkA LanthaScreen Eu Kinase Binding Assay. The conditions noted are these: averaged IC50; TR-FRET binding, 60 min, 22° C.; read-out: TrkA Enzyme IC50. The protocol:
TrkA binding activity was determined in a TrkA LanthaScreen™ Eu Kinase Binding Assay. 5 nM His-tagged recombinant human TrkA (6HIS tagged cytoplasmic domain from Invitrogen, Catalog No. PV3144) was incubated with 4 nM Alexa-Fluor® Tracer 236 (Invitrogen Cat. No. PV5592), 2 nM biotinylated anti-His (Invitrogen Cat. No. PV6090), and 2 nM europium-labeled Streptavidin (Invitrogen Cat. No. PV5899), in buffer (25 mM MOPS, pH 7.5, 5 mM MgCl2, 0.005% Triton X-100). Three fold serial dilutions of compounds of the invention in DMSO were added to a final percentage of 2% DMSO. After 60-minute incubation at 22° C., the reaction was measured using the EnVision mutlimode plate reader (PerkinElmer) via TR-FRET dual wavelength detection at […]. The percent of control was calculated using a ratiometric emission factor. The IC50 values were determined by fitting a four parameter model to the percent of control data.
For orientation: TR-FRET usually uses a lanthanide donor and a delayed reading to cut background.
A word on the IC50: it is the concentration that gives 50% inhibition. With `O=C(Nc1c2c(nn1-c1ccccc1)CCC2)N[C@H]1CCCc2ccccc21` [Example 3, (S)-1-(2-phenyl-2,4,5,6-tetrahydrocyclopenta[c]pyrazol-3-yl)-3-(1,2,3,4-tetrahydronaphthalen-1-yl)urea], the half-maximal inhibitory concentration (IC50) was less than 100 nM.

As for `Cc1c(-c2cnn(C)c2)nn(-c2ccccc2)c1NC(=O)N[C@@H]1CCCc2ccccc21` [Example 4, (R)-1-(1′,4-dimethyl-1-phenyl-1H,1′H-3,4′-bipyrazol-5-yl)-3-(1,2,3,4-tetrahydronaphthalen-1-yl)urea], the concentration for half-maximal inhibition (IC50) lay within 100 to 1000 nM.

`COc1ccc2c(c1)CCCC2NC(=O)Nc1c(C)c(-c2cnn(C)c2)nn1-c1ccccc1` (stereo not shown) [Example 5, 1-(1′,4-dimethyl-1-phenyl-1H,1′H-3,4′-bipyrazol-5-yl)-3-(6-methoxy-1,2,3,4-tetrahydronaphthalen-1-yl)urea]: the IC50 is 100 to 1000 nM.

On to `Cc1c(-c2cnn(C)c2)nn(-c2ccccc2)c1NC(=O)NC1CCCCc2ccccc21` (stereo not shown) [Example 6, 1-(1′,4-dimethyl-1-phenyl-1H,1′H-3,4′-bipyrazol-5-yl)-3-(6,7,8,9-tetrahydro-5H-benzo[7]annulen-5-yl)urea], for which the half-inhibitory concentration (IC50) was less than 100 nM.

With `Cc1c(-c2cnn(C)c2)nn(-c2ccccc2)c1NC(=O)NC1CCOc2ccccc21` (stereo not shown) [Example 7, 1-(chroman-4-yl)-3-(1′,4-dimethyl-1-phenyl-1H,1′H-3,4′-bipyrazol-5-yl)urea], the IC50 fell in the range of 100 to 1000 nM.

On to `Cc1c(-c2cnn(C)c2)nn(-c2ccccc2)c1NC(=O)NC1COCc2ccccc21` (stereo not shown) [Example 8, 1-(1′,4-dimethyl-1-phenyl-1H,1′H-3,4′-bipyrazol-5-yl)-3-(isochroman-4-yl)urea], for which the IC50 is 100 to 1000 nM.

On to `Cc1c(-c2cnn(C)c2)nn(-c2ccccc2)c1NC(=O)NC1CC(C)(C)Oc2ccccc21` (stereo not shown) [Example 9, 1-(1′,4-dimethyl-1-phenyl-1H,1′H-3,4′-bipyrazol-5-yl)-3-(2,2-dimethylchroman-4-yl)urea], for which the IC50 lay within 100 to 1000 nM.

As to `Cc1c(-c2cnn(C)c2)nn(-c2ccccc2)c1NC(=O)NC1COCc2ccc(Br)cc21` (stereo not shown) [Example 10, 1-(6-bromoisochroman-4-yl)-3-(1′,4-dimethyl-1-phenyl-1H,1′H-[3,4′-bipyrazol]-5-yl)urea], the IC50 was less than 100 nM.

For `Cc1nn(-c2ccccc2)c(NC(=O)N[C@H]2CCCc3ccccc32)c1Br` [Example 11, (S)-1-(4-bromo-3-methyl-1-phenyl-1H-pyrazol-5-yl)-3-(1,2,3,4-tetrahydronaphthalen-1-yl)urea], the IC50 was less than 100 nM.

As for `CCOc1nn(-c2ccccc2)c(NC(=O)NC2CCOc3cc(F)ccc32)c1C` (stereo not shown) [Example 13, 1-(3-ethoxy-4-methyl-1-phenyl-1H-pyrazol-5-yl)-3-(7-fluorochroman-4-yl)urea], the half-maximal inhibitory concentration (IC50) was 100 to 1000 nM.

In the case of `Cc1c(-c2cnn(C)c2)nn(-c2ccccc2)c1NC(=O)NC1CC(C)Oc2ccc(F)cc21` (stereo not shown) [Example 14, 1-(1′,4-dimethyl-1-phenyl-1H,1′H-[3,4′-bipyrazol]-5-yl)-3-(6-fluoro-2-methylchroman-4-yl)urea], the IC50 lay in the range of 100 to 1000 nM.

Turning to `Cc1c(-c2cnn(C)c2)nn(-c2ccccc2)c1NC(=O)NC1CCCc2ccc(Br)cc21` (stereo not shown) [Example 15, 1-(7-bromo-1,2,3,4-tetrahydronaphthalen-1-yl)-3-(1′,4-dimethyl-1-phenyl-1H,1′H-[3,4′-bipyrazol]-5-yl)urea], the IC50 was less than 100 nM.

On to `Cc1c(-c2cnn(C)c2)nn(-c2ccccc2)c1NC(=O)NC1CCC(C)(C)c2ccc(Br)cc21` (stereo not shown) [Example 16, 1-(7-bromo-4,4-dimethyl-1,2,3,4-tetrahydronaphthalen-1-yl)-3-(1′,4-dimethyl-1-phenyl-1H,1′H-[3,4′-bipyrazol]-5-yl)urea], for which the IC50 is less than 100 nM.

For the compound `COCCN1CCc2ccccc2C(NC(=O)Nc2c(C)c(-c3cnn(C)c3)nn2-c2ccccc2)C1` (stereo not shown) [Example 17, 1-(1′,4-dimethyl-1-phenyl-1H,1′H-3,4′-bipyrazol-5-yl)-3-(3-(2-methoxyethyl)-2,3,4,5-tetrahydro-1H-benzo[d]azepin-1-yl)urea], the concentration for half-maximal inhibition (IC50) is 100 to 1000 nM.

`Cc1c(-c2cnn(C)c2)nn(-c2ccccc2)c1NC(=O)NC1CN(CC(F)(F)F)CCc2ccccc21` (stereo not shown) [Example 18, 1-(1′,4-dimethyl-1-phenyl-1H,1′H-3,4′-bipyrazol-5-yl)-3-(3-(2,2,2-trifluoroethyl)-2,3,4,5-tetrahydro-1H-benzo[d]azepin-1-yl)urea]: the IC50 was in the range of 100 to 1000 nM.

In the case of `CC(=O)N1CCc2ccccc2C(NC(=O)Nc2c(C)c(-c3cnn(C)c3)nn2-c2ccccc2)C1` (stereo not shown) [Example 19, 1-(3-acetyl-2,3,4,5-tetrahydro-1H-benzo[d]azepin-1-yl)-3-(1′,4-dimethyl-1-phenyl-1H,1′H-3,4′-bipyrazol-5-yl)urea], the concentration for half-maximal inhibition (IC50) fell in the range of 100 to 1000 nM.

For the compound `CCC(=O)N1CCc2ccccc2C(NC(=O)Nc2c(C)c(-c3cnn(C)c3)nn2-c2ccccc2)C1` (stereo not shown) [Example 20, 1-(1′,4-dimethyl-1-phenyl-1H,1′H-3,4′-bipyrazol-5-yl)-3-(3-propionyl-2,3,4,5-tetrahydro-1H-benzo[d]azepin-1-yl)urea], the 50% inhibitory concentration (IC50) was in the range of 100 to 1000 nM.

For `CCCN1CCc2ccccc2C(NC(=O)Nc2c(C)c(-c3cnn(C)c3)nn2-c2ccccc2)C1` (stereo not shown) [Example 21], the IC50 fell in the range of 100 to 1000 nM.

As for `CCN1Cc2ccccc2C(NC(=O)Nc2c3c(nn2-c2ccccc2)CCC3)C1` (stereo not shown) [Example 22, 1-(2-ethyl-1,2,3,4-tetrahydroisoquinolin-4-yl)-3-(2-phenyl-2,4,5,6-tetrahydrocyclopenta[c]pyrazol-3-yl)urea], the IC50 is 100 to 1000 nM.

As to `COCCN1Cc2ccccc2C(NC(=O)Nc2c3c(nn2-c2ccccc2)CCC3)C1` (stereo not shown) [Example 23, 1-(2-(2-methoxyethyl)-1,2,3,4-tetrahydroisoquinolin-4-yl)-3-(2-phenyl-2,4,5,6-tetrahydrocyclopenta[c]pyrazol-3-yl)urea], the half-maximal inhibitory concentration (IC50) was in the range of 100 to 1000 nM.

For `CC(=O)N1Cc2ccccc2C(NC(=O)Nc2c3c(nn2-c2ccccc2)CCC3)C1` (stereo not shown) [Example 24, 1-(2-acetyl-1,2,3,4-tetrahydroisoquinolin-4-yl)-3-(2-phenyl-2,4,5,6-tetrahydrocyclopenta[c]pyrazol-3-yl)urea], the IC50 was in the range of 100 to 1000 nM.

`Cc1c(-c2cnn(C)c2)nn(-c2ccccc2)c1NC(=O)NC1CN(CC(F)(F)F)Cc2ccccc21` (stereo not shown) [Example 25, 1-(1′,4-dimethyl-1-phenyl-1H,1′H-3,4′-bipyrazol-5-yl)-3-(2-(2,2,2-trifluoroethyl)-1,2,3,4-tetrahydroisoquinolin-4-yl)urea]: the concentration for half-maximal inhibition (IC50) is less than 100 nM.

For the compound `Cc1c(-c2cn(C)cn2)nn(-c2ccccc2)c1NC(=O)NC1CN(CC(F)(F)F)Cc2ccccc21` (stereo not shown) [Example 27, 1-(4-methyl-3-(1-methyl-1H-imidazol-4-yl)-1-phenyl-1H-pyrazol-5-yl)-3-(2-(2,2,2-trifluoroethyl)-1,2,3,4-tetrahydroisoquinolin-4-yl)urea], the concentration for half-maximal inhibition (IC50) is less than 100 nM.

Take `O=C(Nc1c2c(nn1-c1ccccc1)CCC2)NC1CN(CC(F)(F)F)Cc2ccccc21` (stereo not shown) [Example 28, 1-(2-phenyl-2,4,5,6-tetrahydrocyclopenta[c]pyrazol-3-yl)-3-(2-(2,2,2-trifluoroethyl)-1,2,3,4-tetrahydroisoquinolin-4-yl)urea]: the IC50 is less than 100 nM.

Take `CNC(=O)c1nn(-c2ccccc2)c(NC(=O)NC2CN(CC(F)(F)F)Cc3ccccc32)c1C` (stereo not shown) [Example 29, N,4-dimethyl-1-phenyl-5-(3-(2-(2,2,2-trifluoroethyl)-1,2,3,4-tetrahydroisoquinolin-4-yl)ureido)-1H-pyrazole-3-carboxamide]: the IC50 was less than 100 nM.

With `Cc1c(NC(=O)NC2CN(CC(F)(F)F)Cc3ccccc32)n(-c2ccccc2)[nH]c1=O` (stereo not shown) [Example 30, 1-(4-methyl-5-oxo-2-phenyl-2,5-dihydro-1H-pyrazol-3-yl)-3-(2-(2,2,2-trifluoroethyl)-1,2,3,4-tetrahydroisoquinolin-4-yl)urea], the half-maximal inhibitory concentration (IC50) is less than 100 nM.

As for `Cc1nn(-c2ccccc2)c(NC(=O)NC2CN(CC(F)(F)F)Cc3ccccc32)c1C(N)=O` (stereo not shown) [Example 31, 3-methyl-1-phenyl-5-(3-(2-(2,2,2-trifluoroethyl)-1,2,3,4-tetrahydroisoquinolin-4-yl)ureido)-1H-pyrazole-4-carboxamide], the IC50 was less than 100 nM.

As to `Cc1c(-c2cnn(C)c2)nn(-c2ccccc2)c1NC(=O)NC1CC(C2CC2)Oc2ccc(Br)cc21` (stereo not shown) [Example 33, 1-(6-bromo-2-cyclopropylchroman-4-yl)-3-(1′,4-dimethyl-1-phenyl-1H,1′H-[3,4′-bipyrazo]-5-yl)urea], the IC50 is less than 100 nM.

`Cc1c(-c2cnn(C)c2)nn(-c2ccccc2)c1NC(=O)NC1CC2(CCC2)Oc2ccc(Br)cc21` (stereo not shown) [Example 34, 1-(6-bromospiro[chroman-2,1′-cyclobutan]-4-yl)-3-(1′,4-dimethyl-1-phenyl-1H,1′H-[3,4′-bipyrazol]-5-yl)urea]: the IC50 was less than 100 nM.

For `COCc1ccc2c(c1)C(NC(=O)Nc1c(C)c(-c3cnn(C)c3)nn1-c1ccccc1)CC1(CCC1)O2` (stereo not shown) [Example 35A, 1-(1′,4-dimethyl-1-phenyl-1H,1′H-[3,4′-bipyrazol]-5-yl)-3-(6-(methoxymethyl)spiro[chroman-2,1′-cyclobutan]-4-yl)urea], the concentration for half-maximal inhibition (IC50) is less than 100 nM.

Regarding `Cc1c(-c2cnn(C)c2)nn(-c2ccccc2)c1NC(=O)NC1CC2(CCC2)Oc2ccccc21` (stereo not shown) [Example 35B, 1-(1′,4-dimethyl-1-phenyl-1H,1′H-[3,4′-bipyrazol]-5-yl)-3-(spiro[chroman-2,1′-cyclobutan]-4-yl)urea], the half-maximal inhibitory concentration (IC50) is 100 to 1000 nM.
